Biological target: T1, voltage-dependent T-type calcium channel subunit alpha-1G (Cav3.2) (Homo sapiens, UniProt O95180)
T1 construct: expressed in transfected cells; host or cells: HEK293
Experiment: FLIPR calcium flux assay, HEK293 cells recombinantly expressing Cav3.2
Format: cell-based
Conditions: Cav3.2-channel, Fluo-4-AM, 3 min incubation, stimulation with 10 mM CaCl2
Experimental: In Vitro Methods—Measurement of Calcium Channel Flux by Means of FLIPR Assays.
HEK293 cells recombinantly expressing either voltage-dependent T-type calcium channel subunit […] (Cav3.2) or voltage-dependent L-type calcium channel subunit alpha-1C (Cav1.2) are assayed for calcium flux using the calcium indicator dye Fluo-4-AM (Molecular Devices) and FLIPR technology (Fluorometric Imaging Plate Reader, Molecular Devices) (Xie X, Van Deusen A L, Vitko I, Babu D A, Davies L A, Huynh N, Cheng H, Yang N, Barrett P Q, Perez-Reyes E. Validation of high throughput screening assays against three subtypes of Ca(v)3 T-type channels using molecular and pharmacologic approaches. Assay and Drug Development Technologies 2007, 5(2), 191-203). The HEK293 cells recombinantly expressing Cav3.2 are maintained in DMEM growth medium (Life Technologies) supplemented with 10% Fetal Bovine Serum (FBS), 100 U/ml penicilin (Life Technologies), 100 μg/ml streptomycin (Life Technologies) and 1 mg/ml G418 (Life Technologies). HEK293 cells recombinantly expressing Cav1.2 are maintained in DMEM growth medium (Life technologies) supplemented with 10% FBS, 0.1 mg/ml G418 (Life Technologies), 0.1 mg/ml hygromycin (Life Technologies) and 40 ug/ml zeocin (Life Technologies).
The seeded plates are incubated overnight at 37° C.
The cells are then washed three times with assay buffer (HBSS 1×; 0.375 g/L NaHCO3; 20 mM Hepes; 1% FBS; pH 7.4) and allowed to rest in 50 μl of wash buffer for 30 minutes.
Stock solutions of test compounds are prepared to a concentration of 10 mM in DMSO. For the Cav3.2 assay, serial dilutions of the compounds are prepared in TEAC buffer (100 mM tetraethylammonium chloride; 20 mM Hepes; 2.5 mM CaCl2; 5 mM KCl; 1 mM MgCl2; 1% FBS; pH 7.2), for the Cav1.2 assay serial dilutions are prepared in assay buffer. […] The compounds are incubated with the cells for 3 minutes and Ca2+ entry is stimulated by adding either CaCl2 to a final concentration of 10 mM (Cav3.2 assay) or by adding KCl to a final concentration of 20 mM (Cav1.2 assay). The kinetics of fluorescence increase are recorded for every well and the area under the fluorescence trace for every compound concentration is used to generate inhibition curves using non-linear regression sigmoidal concentration-response curve analysis with in-house software.

T1 sequence (O95180 whole entry): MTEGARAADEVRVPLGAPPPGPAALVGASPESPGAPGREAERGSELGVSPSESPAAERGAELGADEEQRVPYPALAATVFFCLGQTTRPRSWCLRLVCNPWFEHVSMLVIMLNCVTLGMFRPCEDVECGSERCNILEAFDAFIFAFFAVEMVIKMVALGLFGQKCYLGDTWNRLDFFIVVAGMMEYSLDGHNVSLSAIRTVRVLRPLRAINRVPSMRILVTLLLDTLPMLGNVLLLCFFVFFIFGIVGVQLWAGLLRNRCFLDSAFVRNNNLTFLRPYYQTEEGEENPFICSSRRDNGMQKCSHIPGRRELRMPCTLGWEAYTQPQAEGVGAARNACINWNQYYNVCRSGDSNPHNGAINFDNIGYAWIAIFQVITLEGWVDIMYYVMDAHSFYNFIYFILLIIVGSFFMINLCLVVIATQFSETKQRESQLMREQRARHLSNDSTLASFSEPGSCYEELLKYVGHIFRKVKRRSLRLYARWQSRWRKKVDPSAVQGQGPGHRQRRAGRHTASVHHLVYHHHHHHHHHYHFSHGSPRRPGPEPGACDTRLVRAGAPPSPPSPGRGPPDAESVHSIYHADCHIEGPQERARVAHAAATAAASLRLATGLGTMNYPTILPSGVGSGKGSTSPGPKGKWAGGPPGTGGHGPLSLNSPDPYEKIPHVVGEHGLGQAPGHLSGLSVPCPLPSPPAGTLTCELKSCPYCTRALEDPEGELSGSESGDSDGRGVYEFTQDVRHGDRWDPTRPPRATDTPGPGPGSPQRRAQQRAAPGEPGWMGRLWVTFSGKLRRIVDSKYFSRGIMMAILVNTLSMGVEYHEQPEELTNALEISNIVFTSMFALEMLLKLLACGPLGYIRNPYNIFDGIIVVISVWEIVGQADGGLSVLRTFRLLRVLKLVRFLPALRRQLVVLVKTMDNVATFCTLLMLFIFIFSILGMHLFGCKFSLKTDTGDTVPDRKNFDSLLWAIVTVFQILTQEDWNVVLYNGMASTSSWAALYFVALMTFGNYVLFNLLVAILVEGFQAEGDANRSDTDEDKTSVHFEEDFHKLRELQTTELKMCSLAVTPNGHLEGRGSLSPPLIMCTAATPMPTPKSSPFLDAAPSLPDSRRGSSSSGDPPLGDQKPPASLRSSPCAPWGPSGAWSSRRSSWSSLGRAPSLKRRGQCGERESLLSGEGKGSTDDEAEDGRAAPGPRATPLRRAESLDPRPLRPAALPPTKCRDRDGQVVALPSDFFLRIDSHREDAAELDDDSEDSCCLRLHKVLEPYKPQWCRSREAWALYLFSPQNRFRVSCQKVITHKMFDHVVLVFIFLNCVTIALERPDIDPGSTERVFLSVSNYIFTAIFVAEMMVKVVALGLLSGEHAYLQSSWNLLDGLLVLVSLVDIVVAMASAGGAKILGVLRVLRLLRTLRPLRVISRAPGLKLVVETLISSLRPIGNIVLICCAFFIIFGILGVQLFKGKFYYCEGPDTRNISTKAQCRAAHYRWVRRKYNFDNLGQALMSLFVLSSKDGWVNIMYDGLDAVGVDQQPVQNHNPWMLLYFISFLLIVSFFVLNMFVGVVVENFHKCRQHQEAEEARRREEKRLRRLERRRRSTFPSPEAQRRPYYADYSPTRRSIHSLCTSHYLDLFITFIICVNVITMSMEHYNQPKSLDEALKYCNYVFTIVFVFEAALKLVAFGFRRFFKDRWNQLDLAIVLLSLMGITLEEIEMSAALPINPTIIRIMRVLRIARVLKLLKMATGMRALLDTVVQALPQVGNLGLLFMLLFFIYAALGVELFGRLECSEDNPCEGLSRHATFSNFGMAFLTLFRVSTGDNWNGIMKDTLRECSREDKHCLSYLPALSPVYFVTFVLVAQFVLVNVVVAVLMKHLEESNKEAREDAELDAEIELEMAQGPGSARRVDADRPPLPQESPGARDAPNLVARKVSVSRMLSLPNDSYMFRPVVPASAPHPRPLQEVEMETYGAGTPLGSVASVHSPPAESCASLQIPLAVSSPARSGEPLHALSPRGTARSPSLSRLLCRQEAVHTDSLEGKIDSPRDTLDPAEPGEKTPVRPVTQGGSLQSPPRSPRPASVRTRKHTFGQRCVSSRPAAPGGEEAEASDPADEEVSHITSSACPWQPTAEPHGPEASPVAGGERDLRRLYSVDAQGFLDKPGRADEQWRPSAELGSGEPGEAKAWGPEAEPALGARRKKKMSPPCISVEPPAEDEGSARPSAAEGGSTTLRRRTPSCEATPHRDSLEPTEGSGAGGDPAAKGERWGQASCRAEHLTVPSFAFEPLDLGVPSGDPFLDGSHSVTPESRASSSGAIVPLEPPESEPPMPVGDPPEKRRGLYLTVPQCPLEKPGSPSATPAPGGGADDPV

SMILES | IC50
O=C(Cc1ccc(N2CC[C@@H](F)C2)cc1)Nc1ccn(Cc2ccc(F)c(F)c2)n1 [Example 68, N-[1-(3,4-Difluoro-benzyl)-1H-pyrazol-3-yl]-2-[4-((R)-3-fluoro-pyrrolidin-1-yl)-phenyl]-acetamide] | 4.8 nM
N#Cc1ccc(Cn2ccc(NC(=O)Cc3ccc(N4CC[C@@H](F)C4)cc3)n2)cc1 [Example 69, N-[1-(4-Cyano-benzyl)-1H-pyrazol-3-yl]-2-[4-((R)-3-fluoro-pyrrolidin-1-yl)-phenyl]-acetamide] | 16 nM
O=C(Cc1ccc(N2CC[C@@H](F)C2)cc1)Nc1ccn(Cc2ccc(F)cc2)n1 [Example 70, N-[1-(4-Fluoro-benzyl)-1H-pyrazol-3-yl]-2-[4-((R)-3-fluoro-pyrrolidin-1-yl)-phenyl]-acetamide] | 11 nM
N#Cc1ccc(Cn2ccc(NC(=O)Cc3ccc(N4CC(F)C4)cc3)n2)cc1 [Example 72, N-[1-(4-Cyano-benzyl)-1H-pyrazol-3-yl]-2-[4-(3-fluoro-azetidin-l-yl)-phenyl]-acetamide] | 46 nM
O=C(Cc1ccc(N2CC(F)C2)cc1)Nc1ccn(Cc2ccc(F)cc2)n1 [Example 73, 2-[4-(3-Fluoro-azetidin-1-yl)-phenyl]-N-[1-(4-fluoro-benzyl)-1H-pyrazol-3-yl]-acetamide] | 7.9 nM
N#Cc1ccc(Cn2ccc(NC(=O)Cc3ccc(N4CC[C@H](F)C4)cc3)n2)cc1 [Example 74, N-[1-(4-Cyano-benzyl)-1H-pyrazol-3-yl]-2-[4-((S)-3-fluoro-pyrrolidin-1-yl)-phenyl]-acetamide] | 14 nM
O=C(Cc1ccc(N2CC[C@H](F)C2)cc1)Nc1ccn(Cc2ccc(F)cc2)n1 [Example 75, N-[1-(4-Fluoro-benzyl)-1H-pyrazol-3-yl]-2-[4-((S)-3-fluoro-pyrrolidin-1-yl)-phenyl]-acetamide] | 5.2 nM
N#Cc1ccc(Cn2ccc(NC(=O)Cc3ccc(C4CC4)cc3)n2)nc1 [Example 78, N-[1-(5-Cyano-pyridin-2-ylmethyl)-1H-pyrazol-3-yl]-2-(4-cyclopropyl-phenyl)-acetamide] | 275 nM
O=C(Cc1ccc(-c2cnccn2)cc1)Nc1ccn(Cc2ccc(F)cc2)n1 [Example 81, N-[1-(4-Fluoro-benzyl)-1H-pyrazol-3-yl]-2-(4-pyrazin-2-yl-phenyl)-acetamide] | 131 nM
O=C(Cc1ccc(-c2ncccn2)cc1)Nc1ccn(Cc2ccc(F)cc2)n1 [Example 85, N-[1-(4-Fluoro-benzyl)-1H-pyrazol-3-yl]-2-(4-pyrimidin-2-yl-phenyl)-acetamide] | 301 nM
O=C(Cc1ccc(-c2cncnc2)cc1)Nc1ccn(Cc2ccc(F)cc2)n1 [Example 86, N-[1-(4-Fluoro-benzyl)-1H-pyrazol-3-yl]-2-(4-pyrimidin-5-yl-phenyl)-acetamide] | 140 nM
O=C(Cc1ccc(-c2ccncn2)cc1)Nc1ccn(Cc2ccc(F)cc2)n1 [Example 87, N-[1-(4-Fluoro-benzyl)-1H-pyrazol-3-yl]-2-(4-pyrimidin-4-yl-phenyl)-acetamide] | 157 nM
N#Cc1ccc(Cn2ccc(NC(=O)Cc3ccc(N4CC[C@@H](F)C4)cc3)n2)nc1 [Example 89, N-[1-(5-Cyano-pyridin-2-ylmethyl)-1H-pyrazol-3-yl]-2-[4-((R)-3-fluoro-pyrrolidin-1-yl)-phenyl]-acetamide] | 61 nM
N#Cc1ccc(Cn2ccc(NC(=O)Cc3ccc(N4CC[C@H](F)C4)cc3)n2)nc1 [Example 90, N-[1-(5-Cyano-pyridin-2-ylmethyl)-1H-pyrazol-3-yl]-2-[4-((S)-3-fluoro-pyrrolidin-1-yl)-phenyl]-acetamide] | 75 nM
N#Cc1ccc(Cn2ccc(NC(=O)Cc3ccc(N4CCC(F)(F)C4)cc3)n2)nc1 [Example 91, N-[1-(5-Cyano-pyridin-2-ylmethyl)-1H-pyrazol-3-yl]-2-[4-(3,3-difluoro-pyrrolidin-1-yl)-phenyl]-acetamide] | 23 nM
Cc1cncnc1-c1ccc(CC(=O)Nc2ccn(Cc3ccc(F)cc3)n2)cc1 [Example 92, N-[1-(4-Fluoro-benzyl)-1H-pyrazol-3-yl]-2-[4-(5-methyl-pyrimidin-4-yl)-phenyl]-acetamide] | 48 nM
CC(C)c1ccc(CC(=O)Nc2ccn(Cc3ccc(OCC(F)(F)F)cn3)n2)cc1 [Example 93, 2-(4-Isopropyl-phenyl)-N-{1-[5-(2,2,2-trifluoro-ethoxy)-pyridin-2-ylmethyl]-1H-pyrazol-3-yl}-acetamide] | 39 nM
CC(C)c1ccc(CC(=O)Nc2ccn(Cc3ccc(C4CC4)cn3)n2)cc1 [Example 96, N-[1-(5-Cyclopropyl-pyridin-2-ylmethyl)-1H-pyrazol-3-yl]-2-(4-isopropyl-phenyl)-acetamide] | 53 nM
CC(C)Cc1ccc(Cn2ccc(NC(=O)Cc3ccc(C(C)C)cc3)n2)nc1 [Example 98, N-[1-(5-Isobutyl-pyridin-2-ylmethyl)-1H-pyrazol-3-yl]-2-(4-isopropyl-phenyl)-acetamide] | 38 nM

Next, values leading:

IC50 | SMILES
60 nM | CC(C)c1ccc(CC(=O)Nc2ccn(Cc3ccc(C#N)cn3)n2)cc1 [Example 71, N-[1-(5-Cyano-pyridin-2-ylmethyl)-1H-pyrazol-3-yl]-2-(4-isopropyl-phenyl)-acetamide]
6.1 nM | N#Cc1ccc(Cn2ccc(NC(=O)Cc3ccc(N4CCC(F)(F)C4)cc3)n2)cc1 [Example 76, N-[1-(4-Cyano-benzyl)-1H-pyrazol-3-yl]-2-[4-(3,3-difluoro-pyrrolidin-1-yl)-phenyl]-acetamide]
9.1 nM | O=C(Cc1ccc(N2CCC(F)(F)C2)cc1)Nc1ccn(Cc2ccc(F)cc2)n1 [Example 77, 2-[4-(3,3-Difluoro-pyrrolidin-1-yl)-phenyl]-N-[1-(4-fluoro-benzyl)-1H-pyrazol-3-yl]-acetamide]
92 nM | Cc1nccnc1-c1ccc(CC(=O)Nc2ccn(Cc3ccc(F)cc3)n2)cc1 [Example 80, N-[1-(4-Fluoro-benzyl)-1H-pyrazol-3-yl]-2-[4-(3-methyl-pyrazin-2-yl)-phenyl]-acetamide]
33 nM | O=C(Cc1ccc(-c2ccccn2)cc1)Nc1ccn(Cc2ccc(F)cc2)n1 [Example 82, N-[1-(4-Fluoro-benzyl)-1H-pyrazol-3-yl]-2-(4-pyridin-2-yl-phenyl)-acetamide]
26 nM | O=C(Cc1ccc(-c2cccnc2)cc1)Nc1ccn(Cc2ccc(F)cc2)n1 [Example 83, N-[1-(4-Fluoro-benzyl)-1H-pyrazol-3-yl]-2-(4-pyridin-3-yl-phenyl)-acetamide]
18 nM | O=C(Cc1ccc(-c2ccncc2)cc1)Nc1ccn(Cc2ccc(F)cc2)n1 [Example 84, N-[1-(4-Fluoro-benzyl)-1H-pyrazol-3-yl]-2-(4-pyridin-4-yl-phenyl)-acetamide]
109 nM | CC(C)c1ccc(CC(=O)Nc2ccn(Cc3ccc(F)c(F)c3)n2)cn1 [Example 88, N-[1-(3,4-Difluoro-benzyl)-1H-pyrazol-3-yl]-2-(6-isopropyl-pyridin-3-yl)-acetamide]
8.3 nM | CC(C)c1ccc(CC(=O)Nc2ccn(Cc3ccc(Br)cn3)n2)cc1 [Example 94, N-[1-(5-Bromo-pyridin-2-ylmethyl)-1H-pyrazol-3-yl]-2-(4-isopropyl-phenyl)-acetamide]
99 nM | O=C(Cc1cnc(OCC(F)(F)F)c(F)c1)Nc1ccn(Cc2ccc(F)c(F)c2)n1 [Example 95, N-[1-(3,4-Difluoro-benzyl)-1H-pyrazol-3-yl]-2-[5-fluoro-6-(2,2,2-trifluoro-ethoxy)-pyridin-3-yl]-acetamide]
31 nM | Cc1ccc(Cn2ccc(NC(=O)Cc3ccc(C(C)C)cc3)n2)nc1 [Example 97, 2-(4-Isopropyl-phenyl)-N-[1-(5-methyl-pyridin-2-ylmethyl)-1H-pyrazol-3-yl]-acetamide]
48 nM | O=C(Cc1ccc(N2CCC2)nc1)Nc1ccn(Cc2ccc(F)c(F)c2)n1 [Example 99, 2-(6-Azetidin-1-yl-pyridin-3-yl)-N-[1-(3,4-difluoro-benzyl)-1H-pyrazol-3-yl]-acetamide]
60 nM | CCc1ccc(Cn2ccc(NC(=O)Cc3ccc(C(C)C)cc3)n2)nc1 [Example 100, N-[1-(5-Ethyl-pyridin-2-ylmethyl)-1H-pyrazol-3-yl]-2-(4-isopropyl-phenyl)-acetamide]
925 nM | COc1ccc(Cn2ccc(NC(=O)Cc3ccc(N4CCC4)nc3)n2)cc1 [Example 101, 2-(6-Azetidin-1-yl-pyridin-3-yl)-N-[1-(4-methoxy-benzyl)-1H-pyrazol-3-yl]-acetamide]

Reference: patent publication US9932314B2, “Pyrazole compounds and their use as T-type calcium channel blockers” (IDORSIA PHARMACEUTICALS LTD, priority 2015, dated 2018)
